Laboratory results reported in patent US20230183237A1, “COMPETITIVE AND NONCOMPETITIVE INHIBITORS OF THE MUSCARINIC ACETYLCHOLINE RECEPTOR M5” (Vanderbilt University, priority 2020, published 2023).

What follows are compounds tested against T1, hM5 (Homo sapiens, UniProt P08912) (assay: Calcium mobilization concentration-response (IC50 vs EC80 acetylcholine), CHO hM5). Details: not given.
T1 construct: expressed in transfected cells
T1 sequence (P08912 1-532): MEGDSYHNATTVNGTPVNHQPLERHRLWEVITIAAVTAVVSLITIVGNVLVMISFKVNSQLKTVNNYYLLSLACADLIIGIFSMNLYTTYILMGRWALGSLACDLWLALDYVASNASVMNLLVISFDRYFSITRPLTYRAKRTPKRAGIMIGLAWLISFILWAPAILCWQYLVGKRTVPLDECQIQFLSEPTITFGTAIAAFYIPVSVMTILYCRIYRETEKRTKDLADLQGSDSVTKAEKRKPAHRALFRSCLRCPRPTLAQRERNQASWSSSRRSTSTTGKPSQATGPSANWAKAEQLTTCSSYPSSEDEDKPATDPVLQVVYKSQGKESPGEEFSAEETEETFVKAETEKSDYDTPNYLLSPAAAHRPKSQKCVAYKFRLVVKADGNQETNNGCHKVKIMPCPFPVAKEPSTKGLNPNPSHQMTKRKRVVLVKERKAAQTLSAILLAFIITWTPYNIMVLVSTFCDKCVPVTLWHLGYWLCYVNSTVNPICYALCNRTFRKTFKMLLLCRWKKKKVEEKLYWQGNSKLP
Format: cell-based
In short: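 CHO cells stably expressing hM5, dye-loaded, in HBSS/20 mM HEPES/2.5 mM probenecid, pH 7.4. Compounds were pre-incubated 140 s before an EC80 acetylcholine challenge, with calcium flux read kinetically.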

SMILES	IC50 [µM]
Cc1cc2ncnn2cc1C1=CC2CCC(C1)N2S(=O)(=O)c1ccc2c(c1)CCO2 (stereo not shown) [Compound 190, 6-(8-((2,3-dihydrobenzofuran-5-yl)sulfonyl)-8-azabicyclo[3.2.1]oct-2-en-3-yl)-7-methyl-[1,2,4]triazolo[1,5-a]pyridine]	> 10
Cc1cc2ncnn2cc1C1CC2CCC(C1)N2S(=O)(=O)c1cnn(C)c1C (stereo not shown) [Compound 191, 6-(8-((1,5-dimethyl-1H-pyrazol-4-yl)sulfonyl)-8-azabicyclo[3.2.1]octan-3-yl)-7-methyl-[1,2,4]triazolo[1,5-a]pyridine]	> 10
Cc1cc2ncnn2cc1C1CC2CCC(C1)N2S(=O)(=O)c1cnn2c1CCC2 (stereo not shown) [Compound 193, 6-(8-((5,6-dihydro-4H-pyrrolo[1,2-b]pyrazol-3-yl)sulfonyl)-8-azabicyclo[3.2.1]octan-3-yl)-7-methyl-[1,2,4]triazolo[1,5-a]pyridine]	1.6

Same assay, conditions: CELL LINE hM5; calcium mobilization, EC80 acetylcholine addition; read-out: IC50

SMILES	IC50 [µM]
Cc1cc2ncnn2nc1C1CCN(S(=O)(=O)c2cnn(C(F)F)c2C)CC1 [Compound 176, 6-(1-((1-(difluoromethyl)-5-methyl-1H-pyrazol-4-yl)sulfonyl)piperidin-4-yl)-7-methyl-[1,2,4]triazolo[1,5-b]pyridazine]	> 10
Cc1cc2ncnn2nc1C1CCN(S(=O)(=O)c2cnn(C)c2C(F)(F)F)CC1 [Compound 177, 7-methyl-6-(1-((1-methyl-5-(trifluoromethyl)-1H-pyrazol-4-yl)sulfonyl)piperidin-4-yl)-[1,2,4]triazolo[1,5-b]pyridazine]	> 10
Cc1cc2ncnn2nc1C1CCN(S(=O)(=O)c2c(C)nn(C)c2Cl)CC1 [Compound 179, 6-(1-((5-chloro-1,3-dimethyl-1H-pyrazol-4-yl)sulfonyl)piperidin-4-yl)-7-methyl-[1,2,4]triazolo[1,5-b]pyridazine]	0.066
Cc1cc2ncnn2nc1C1CCN(S(=O)(=O)c2c(C)n[nH]c2C)CC1 [Compound 180, 6-(1-((3,5-dimethyl-1H-pyrazol-4-yl)sulfonyl)piperidin-4-yl)-7-methyl-[1,2,4]triazolo[1,5-b]pyridazine]	> 10
Cc1cc2ncnn2nc1C1CCN(S(=O)(=O)c2cc3c(cc2F)OCC3)CC1 [Compound 181, 6-(1-((6-fluoro-2,3-dihydrobenzofuran-5-yl)sulfonyl)piperidin-4-yl)-7-methyl-[1,2,4]triazolo[1,5-b]pyridazine]	> 10
Cc1cc2ncnn2nc1C1CCN(S(=O)(=O)c2cn(C)nc2C)CC1 [Compound 182, 6-(1-((1,3-dimethyl-1H-pyrazol-4-yl)sulfonyl)piperidin-4-yl)-7-methyl-[1,2,4]triazolo[1,5-b]pyridazine]	> 10
Cc1cc2c(cc1S(=O)(=O)N1CCC(c3nn4ncnc4cc3C)CC1)OCO2 [Compound 183, 7-methyl-6-(1-((6-methylbenzo[d][1,3]dioxol-5-yl)sulfonyl)piperidin-4-yl)-[1,2,4]triazolo[1,5-b]pyridazine]	> 10
Cc1cc2ncnn2nc1C1CCN(S(=O)(=O)c2ccc3c(c2)OCCO3)CC1 [Compound 184, 6-(1-((2,3-dihydrobenzo[b][1,4]dioxin-6-yl)sulfonyl)piperidin-4-yl)-7-methyl-[1,2,4]triazolo[1,5-b]pyridazine]	> 10
Cc1cc2ncnn2nc1C1CCN(S(=O)(=O)c2ccc3ncsc3c2)CC1 [Compound 185, 6-((4-(7-methyl-[1,2,4]triazolo[1,5-b]pyridazin-6-yl)piperidin-1-yl)sulfonyl)benzo[d]thiazole]	> 10
COc1ccc(S(=O)(=O)N2CCC(c3nn4ncnc4cc3C)CC2)c(C)c1 [Compound 186, 6-(1-((4-methoxy-2-methylphenyl)sulfonyl)piperidin-4-yl)-7-methyl-[1,2,4]triazolo[1,5-b]pyridazine]	> 10
Cc1cc2ncnn2nc1C1CCN(S(=O)(=O)c2cnn3c2CCC3)CC1 [Compound 187, 6-(1-((5,6-dihydro-4H-pyrrolo[1,2-b]pyrazol-3-yl)sulfonyl)piperidin-4-yl)-7-methyl-[1,2,4]triazolo[1,5-b]pyridazine]	0.023
Cc1cc2ncnn2cc1C1CCN(S(=O)(=O)c2ccc3ncn(C)c3c2)CC1 [Compound 188, 7-methyl-6-(1-((1-methyl-1H-benzo[d]imidazol-6-yl)sulfonyl)piperidin-4-yl)-[1,2,4]triazolo[1,5-a]pyridine]	0.105
Cc1cc2ncnn2cc1C1CCN(S(=O)(=O)c2ccc3c(c2)ncn3C)CC1 [Compound 189, 7-methyl-6-(1-((1-methyl-1H-benzo[d]imidazol-5-yl)sulfonyl)piperidin-4-yl)-[1,2,4]triazolo[1,5-a]pyridine]	> 10
CCc1cc2ncnn2cc1C1=CCN(S(=O)(=O)c2cnn(C)c2C)CC1 [Compound 194, 6-(1-((1,5-dimethyl-1H-pyrazol-4-yl)sulfonyl)-1,2,3,6-tetrahydropyridin-4-yl)-7-ethyl-[1,2,4]triazolo[1,5-a]pyridine]	0.055
O=S(=O)(c1cnn2c1CCC2)N1CC=C(c2cc3ncnn3cc2Cl)CC1 [Compound 195, 6-chloro-7-(1-((5,6-dihydro-4H-pyrrolo[1,2-b]pyrazol-3-yl)sulfonyl)-1,2,3,6-tetrahydropyridin-4-yl)-[1,2,4]triazolo[1,5-a]pyridine]	0.065
O=S(=O)(c1cnn2c1CCC2)N1CC=C(c2cn3ncnc3cc2Cl)CC1 [Compound 196, 7-chloro-6-(1-((5,6-dihydro-4H-pyrrolo[1,2-b]pyrazol-3-yl)sulfonyl)-1,2,3,6-tetrahydropyridin-4-yl)-[1,2,4]triazolo[1,5-a]pyridine]	0.0061
Cc1c(S(=O)(=O)N2CCC(c3ccc4ncnn4c3C)CC2)cnn1C [Compound 198, 6-(1-((1,5-dimethyl-1H-pyrazol-4-yl)sulfonyl)piperidin-4-yl)-5-methyl-[1,2,4]triazolo[1,5-a]pyridine]	> 10
Cc1cc(C2CCN(S(=O)(=O)c3cnn(C)c3C)CC2)cn2ncnc12 [Compound 199, 6-(1-((1,5-dimethyl-1H-pyrazol-4-yl)sulfonyl)piperidin-4-yl)-8-methyl-[1,2,4]triazolo[1,5-a]pyridine]	> 10
Cc1nc2cc(C)c(C3CCN(S(=O)(=O)c4cnn(C)c4C)CC3)cn2n1 [Compound 200, 6-(1-((1,5-dimethyl-1H-pyrazol-4-yl)sulfonyl)piperidin-4-yl)-2,7-dimethyl-[1,2,4]triazolo[1,5-a]pyridine]	0.899
COc1cc2ncnn2cc1C1CCN(S(=O)(=O)c2cnn(C)c2C)CC1 [Compound 201, 6-(1-((1,5-dimethyl-1H-pyrazol-4-yl)sulfonyl)piperidin-4-yl)-7-methoxy-[1,2,4]triazolo[1,5-a]pyridine]	0.765
Cc1sc(C(N)=O)nc1C1=CCN(S(=O)(=O)c2cnn(C)c2C)CC1 [Compound 202, 4-(1-((1,5-dimethyl-1H-pyrazol-4-yl)sulfonyl)-1,2,3,6-tetrahydropyridin-4-yl)-5-methylthiazole-2-carboxamide]	> 10
Cc1sc(C(N)=O)nc1C1=CCN(S(=O)(=O)c2ccc3c(c2)CCO3)CC1 [Compound 203, 4-(1-((2,3-dihydrobenzofuran-5-yl)sulfonyl)-1,2,3,6-tetrahydropyridin-4-yl)-5-methylthiazole-2-carboxamide]	> 10
